# Experimental data: PMC2920070 (Journal of medicinal chemistry, 2010)
# Tests used:
# GluR1 = GluR1 (Rattus norvegicus, UniProt P19490); assay: Two-electrode voltage-clamp, recombinant GluR1; type: cell-based
# NR1/NR2D = NR1/NR2D (Rattus norvegicus, UniProt P35439+Q62645); assay: Two-electrode voltage-clamp, recombinant NR1/NR2D in Xenopus oocytes; type: cell-based; details: for GluR1/NR2D: (IC50 GluR1)/(IC50 NR2D) / NR2A/NR2D: (IC50 NR2A)/(IC50 NR2D): selectivity ratio; for response at saturating concentration, NR2D (fitted minimum): fit with variable minimum
# NR1/NR2C = NR1/NR2C (Rattus norvegicus, UniProt P35439+Q00961); assay: Two-electrode voltage-clamp, recombinant NR1/NR2C in Xenopus oocytes; type: cell-based; details: for response at saturating concentration, NR2C (fitted minimum): fit with variable minimum
# GluR6 = GluR6 (Rattus norvegicus, UniProt P42260); assay: Two-electrode voltage-clamp, recombinant GluR6; type: cell-based; details: 30 μM compound
# NR1/NR2B = NR1/NR2B (Rattus norvegicus, UniProt P35439+Q00960); assay: Two-electrode voltage-clamp, recombinant NR1/NR2B in Xenopus oocytes; type: cell-based; details: for response at saturating concentration, NR2B (fitted minimum): fit with variable minimum, predicted
# NR1/NR2A = NR1/NR2A (Rattus norvegicus, UniProt P35439+Q00959); assay: Two-electrode voltage-clamp, recombinant NR1/NR2A in Xenopus oocytes; type: cell-based; details: for response at saturating concentration, NR2A (fitted minimum): fit with variable minimum, predicted
# [1] = Maximum solubility by nephelometry; type: physicochemical; details: oocyte recording solution with 1% DMSO, aqueous buffer, kinetic from dmso stock
# Chain of NR1/NR2D (Q62645 28-1323, other chains not shown): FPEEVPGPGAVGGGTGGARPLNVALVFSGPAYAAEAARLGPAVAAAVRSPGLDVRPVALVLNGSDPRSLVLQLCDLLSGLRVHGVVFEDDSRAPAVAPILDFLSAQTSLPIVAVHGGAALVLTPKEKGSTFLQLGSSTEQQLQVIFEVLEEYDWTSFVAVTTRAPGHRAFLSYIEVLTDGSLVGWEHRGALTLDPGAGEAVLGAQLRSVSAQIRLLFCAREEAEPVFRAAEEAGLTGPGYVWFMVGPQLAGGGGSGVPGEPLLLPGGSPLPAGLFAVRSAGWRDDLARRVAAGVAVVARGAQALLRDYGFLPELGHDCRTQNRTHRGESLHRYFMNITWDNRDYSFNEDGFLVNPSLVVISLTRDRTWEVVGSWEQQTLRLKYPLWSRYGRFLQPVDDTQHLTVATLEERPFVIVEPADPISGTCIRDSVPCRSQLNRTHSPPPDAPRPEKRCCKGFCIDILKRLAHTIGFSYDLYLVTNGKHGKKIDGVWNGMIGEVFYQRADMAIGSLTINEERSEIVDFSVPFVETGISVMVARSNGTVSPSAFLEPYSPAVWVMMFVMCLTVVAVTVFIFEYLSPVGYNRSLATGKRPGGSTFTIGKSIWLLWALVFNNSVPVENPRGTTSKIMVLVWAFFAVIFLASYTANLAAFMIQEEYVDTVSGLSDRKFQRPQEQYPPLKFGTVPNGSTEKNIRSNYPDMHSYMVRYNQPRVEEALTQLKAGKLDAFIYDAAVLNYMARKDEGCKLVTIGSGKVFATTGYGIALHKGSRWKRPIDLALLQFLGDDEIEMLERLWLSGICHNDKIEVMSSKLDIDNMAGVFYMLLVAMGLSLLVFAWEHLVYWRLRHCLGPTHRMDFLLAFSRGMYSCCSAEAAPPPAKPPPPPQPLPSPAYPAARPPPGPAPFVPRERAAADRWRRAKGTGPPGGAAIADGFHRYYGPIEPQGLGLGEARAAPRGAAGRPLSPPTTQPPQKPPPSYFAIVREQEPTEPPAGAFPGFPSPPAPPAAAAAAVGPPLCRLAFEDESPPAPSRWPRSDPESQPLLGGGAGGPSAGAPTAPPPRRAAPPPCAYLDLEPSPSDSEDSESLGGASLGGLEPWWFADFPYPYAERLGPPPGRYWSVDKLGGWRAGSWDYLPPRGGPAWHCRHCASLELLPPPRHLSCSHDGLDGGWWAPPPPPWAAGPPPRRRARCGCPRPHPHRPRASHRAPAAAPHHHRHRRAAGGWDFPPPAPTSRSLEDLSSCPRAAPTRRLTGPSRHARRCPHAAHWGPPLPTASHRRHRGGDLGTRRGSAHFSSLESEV
# Chain of NR1/NR2B (Q00960 27-1482, other chains not shown): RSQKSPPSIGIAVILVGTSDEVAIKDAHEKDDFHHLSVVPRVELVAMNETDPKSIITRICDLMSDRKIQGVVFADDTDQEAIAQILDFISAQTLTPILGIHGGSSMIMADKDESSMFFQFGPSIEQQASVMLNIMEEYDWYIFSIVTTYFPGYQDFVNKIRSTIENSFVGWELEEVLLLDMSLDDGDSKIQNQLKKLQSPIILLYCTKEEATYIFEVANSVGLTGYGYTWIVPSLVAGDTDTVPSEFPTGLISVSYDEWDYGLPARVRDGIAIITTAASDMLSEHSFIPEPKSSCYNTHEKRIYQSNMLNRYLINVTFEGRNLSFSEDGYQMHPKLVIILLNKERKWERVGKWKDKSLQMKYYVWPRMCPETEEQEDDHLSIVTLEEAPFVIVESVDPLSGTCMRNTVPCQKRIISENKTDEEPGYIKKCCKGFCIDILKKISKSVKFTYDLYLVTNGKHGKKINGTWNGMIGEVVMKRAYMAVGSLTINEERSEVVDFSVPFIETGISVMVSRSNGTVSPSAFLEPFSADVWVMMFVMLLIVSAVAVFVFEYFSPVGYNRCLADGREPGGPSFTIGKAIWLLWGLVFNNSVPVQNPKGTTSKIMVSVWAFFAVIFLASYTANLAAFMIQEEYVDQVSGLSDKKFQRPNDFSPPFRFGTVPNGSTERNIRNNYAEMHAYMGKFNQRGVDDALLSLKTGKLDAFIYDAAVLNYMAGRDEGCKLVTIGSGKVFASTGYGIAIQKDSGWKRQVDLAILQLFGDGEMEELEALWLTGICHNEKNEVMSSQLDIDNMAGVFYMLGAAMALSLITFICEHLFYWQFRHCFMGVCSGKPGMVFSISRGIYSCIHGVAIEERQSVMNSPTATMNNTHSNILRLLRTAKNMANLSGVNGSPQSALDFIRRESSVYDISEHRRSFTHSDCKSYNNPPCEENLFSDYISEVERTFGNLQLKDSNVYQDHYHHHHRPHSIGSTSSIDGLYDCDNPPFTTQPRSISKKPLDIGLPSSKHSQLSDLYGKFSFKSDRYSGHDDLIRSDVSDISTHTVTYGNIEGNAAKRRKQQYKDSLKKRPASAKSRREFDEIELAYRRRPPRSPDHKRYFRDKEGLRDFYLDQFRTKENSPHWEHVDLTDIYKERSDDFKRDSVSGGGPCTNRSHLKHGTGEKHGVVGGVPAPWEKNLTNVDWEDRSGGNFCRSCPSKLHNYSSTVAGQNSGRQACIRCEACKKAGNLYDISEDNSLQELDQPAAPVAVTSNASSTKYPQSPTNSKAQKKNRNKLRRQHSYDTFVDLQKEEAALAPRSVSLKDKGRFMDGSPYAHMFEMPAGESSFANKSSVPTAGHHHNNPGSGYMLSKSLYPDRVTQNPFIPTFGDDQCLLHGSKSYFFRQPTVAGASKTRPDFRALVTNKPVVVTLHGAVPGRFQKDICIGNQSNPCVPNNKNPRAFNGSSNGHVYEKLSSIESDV
# Chain of NR1/NR2C (Q00961 20-1237, other chains not shown): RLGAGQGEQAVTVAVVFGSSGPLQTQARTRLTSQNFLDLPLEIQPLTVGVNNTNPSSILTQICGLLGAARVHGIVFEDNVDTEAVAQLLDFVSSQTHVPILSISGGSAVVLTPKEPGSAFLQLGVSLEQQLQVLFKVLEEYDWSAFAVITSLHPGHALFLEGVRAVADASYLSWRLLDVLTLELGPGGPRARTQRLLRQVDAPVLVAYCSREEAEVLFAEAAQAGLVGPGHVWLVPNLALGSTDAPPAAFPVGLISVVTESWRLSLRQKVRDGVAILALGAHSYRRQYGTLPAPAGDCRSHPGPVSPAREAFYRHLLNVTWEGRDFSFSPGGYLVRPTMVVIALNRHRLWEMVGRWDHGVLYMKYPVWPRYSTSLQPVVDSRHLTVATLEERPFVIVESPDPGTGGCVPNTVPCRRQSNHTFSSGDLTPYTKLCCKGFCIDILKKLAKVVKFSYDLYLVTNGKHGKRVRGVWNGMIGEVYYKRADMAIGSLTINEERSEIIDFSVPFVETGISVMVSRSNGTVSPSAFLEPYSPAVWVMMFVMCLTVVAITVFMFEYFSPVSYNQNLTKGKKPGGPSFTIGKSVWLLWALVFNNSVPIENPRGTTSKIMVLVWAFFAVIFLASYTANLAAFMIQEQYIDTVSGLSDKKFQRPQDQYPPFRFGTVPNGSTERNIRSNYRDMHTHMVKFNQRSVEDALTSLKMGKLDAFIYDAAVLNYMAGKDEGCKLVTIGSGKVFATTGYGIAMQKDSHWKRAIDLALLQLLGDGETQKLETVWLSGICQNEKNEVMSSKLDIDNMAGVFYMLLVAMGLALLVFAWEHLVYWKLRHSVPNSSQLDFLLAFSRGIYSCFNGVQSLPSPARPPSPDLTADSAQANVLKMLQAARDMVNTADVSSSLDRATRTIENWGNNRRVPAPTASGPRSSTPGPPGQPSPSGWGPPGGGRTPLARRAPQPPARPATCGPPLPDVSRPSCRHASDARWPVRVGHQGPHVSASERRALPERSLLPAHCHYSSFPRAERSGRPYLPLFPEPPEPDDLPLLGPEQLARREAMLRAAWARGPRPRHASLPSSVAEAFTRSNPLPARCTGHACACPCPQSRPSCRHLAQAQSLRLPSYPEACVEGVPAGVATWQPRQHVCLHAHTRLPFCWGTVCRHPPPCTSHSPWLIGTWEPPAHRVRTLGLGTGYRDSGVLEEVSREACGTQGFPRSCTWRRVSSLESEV
# Chain of GluR1 (P19490 19-907): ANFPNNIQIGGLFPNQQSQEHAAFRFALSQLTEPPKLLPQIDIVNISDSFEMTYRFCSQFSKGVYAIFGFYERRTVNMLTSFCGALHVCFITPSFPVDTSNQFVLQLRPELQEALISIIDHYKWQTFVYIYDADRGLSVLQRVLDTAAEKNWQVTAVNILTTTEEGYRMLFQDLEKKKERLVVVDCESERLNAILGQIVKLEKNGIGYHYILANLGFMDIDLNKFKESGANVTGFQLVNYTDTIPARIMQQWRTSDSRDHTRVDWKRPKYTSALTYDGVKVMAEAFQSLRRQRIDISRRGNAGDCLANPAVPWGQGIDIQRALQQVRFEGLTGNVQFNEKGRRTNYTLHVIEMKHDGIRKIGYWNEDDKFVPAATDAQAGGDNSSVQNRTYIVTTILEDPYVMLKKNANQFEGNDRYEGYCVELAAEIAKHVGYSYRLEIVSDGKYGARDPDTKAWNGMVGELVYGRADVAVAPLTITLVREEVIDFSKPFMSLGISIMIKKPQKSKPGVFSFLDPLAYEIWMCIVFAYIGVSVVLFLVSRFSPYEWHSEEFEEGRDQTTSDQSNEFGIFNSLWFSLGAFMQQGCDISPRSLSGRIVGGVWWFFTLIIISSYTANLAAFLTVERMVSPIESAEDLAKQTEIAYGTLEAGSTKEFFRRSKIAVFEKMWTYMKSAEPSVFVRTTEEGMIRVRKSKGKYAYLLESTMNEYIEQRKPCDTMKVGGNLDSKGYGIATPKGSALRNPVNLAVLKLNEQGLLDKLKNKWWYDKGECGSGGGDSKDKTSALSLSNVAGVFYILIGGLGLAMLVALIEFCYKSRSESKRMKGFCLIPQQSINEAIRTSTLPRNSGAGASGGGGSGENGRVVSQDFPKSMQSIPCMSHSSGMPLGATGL
molecule,measurement,setting,value
"O=C(O)c1ccc(-n2c(/C=C/c3cccc([N+](=O)[O-])c3)nc3ccccc3c2=O)cc1 [Compound 2, (E)-4-(2-(3-nitrostyryl)-4-oxoquinazolin-3(4H)-yl)benzoic acid]",fold more potent (lower fitted IC50) at NMDA receptors than AMPA receptors,GluR1,4-5 fold
same,extent of inhibition of NR1/NR2D responses,NR1/NR2D,completely
same,voltage dependence of inhibition at NR1/NR2D,"NR1/NR2D; 10 μM compound, -40 mV vs +40 mV",voltage-independent
same,mode of inhibition at NR1/NR2D,"NR1/NR2D; 30 μM compound, glutamate/glycine raised from 100/30 μM to 1000/300 μM",non-competitive
same,extent of inhibition of NR1/NR2C responses,NR1/NR2C,completely
same,mode of inhibition at NR1/NR2C,NR1/NR2C,non-competitive
same,voltage dependence of inhibition at NR1/NR2C,NR1/NR2C,voltage-independent
"COc1ccccc1-n1c(/C=C/c2ccccc2[N+](=O)[O-])nc2ccccc2c1=O [Compound 3, (E)-3-(2-methoxyphenyl)-2-(2-nitrostyryl)quinazolin-4(3H)-one]",fold more potent (lower fitted IC50) at NMDA receptors than AMPA receptors,GluR1,4-5 fold
same,extent of inhibition of NR1/NR2D responses,NR1/NR2D,completely
same,extent of inhibition of NR1/NR2C responses,NR1/NR2C,completely
O=C(O)c1ccc(-n2c(/C=C/c3ccccc3)nc3ccccc3c2=O)cc1 [Compound 23],IC50,NR1/NR2C,39 µM
COc1ccc(/C=C/c2nc3ccccc3c(=O)n2-c2ccc(C(=O)O)cc2)cc1 [Compound 24],IC50,NR1/NR2C,42 µM
COc1cccc(/C=C/c2nc3ccccc3c(=O)n2-c2ccc(C(=O)O)cc2)c1 [Compound 25],IC50,NR1/NR2C,17 µM
COc1ccccc1/C=C/c1nc2ccccc2c(=O)n1-c1ccc(C(=O)O)cc1 [Compound 26],IC50,NR1/NR2C,32 µM
O=C(O)c1ccc(-n2c(/C=C/c3ccc(C(F)(F)F)cc3)nc3ccccc3c2=O)cc1 [Compound 27],IC50,NR1/NR2C,23 µM
O=C(O)c1ccc(-n2c(/C=C/c3cccc(C(F)(F)F)c3)nc3ccccc3c2=O)cc1 [Compound 28],IC50,NR1/NR2C,8 µM
O=C(O)c1ccc(-n2c(/C=C/c3ccccc3C(F)(F)F)nc3ccccc3c2=O)cc1 [Compound 29],GluR1/NR2D: (IC50 GluR1)/(IC50 NR2D),NR1/NR2D,>10
same,NR2A/NR2D: (IC50 NR2A)/(IC50 NR2D),NR1/NR2D,>10
same,IC50,NR1/NR2C,88 µM
O=C(O)c1ccc(-n2c(/C=C/c3ccc(O)cc3)nc3ccccc3c2=O)cc1 [Compound 30],IC50,NR1/NR2C,50 µM
Cc1ccc(/C=C/c2nc3ccccc3c(=O)n2-c2ccc(C(=O)O)cc2)cc1 [Compound 33],GluR1/NR2D: (IC50 GluR1)/(IC50 NR2D),NR1/NR2D,>17
same,IC50,NR1/NR2C,28 µM
Cc1cccc(/C=C/c2nc3ccccc3c(=O)n2-c2ccc(C(=O)O)cc2)c1 [Compound 34],GluR1/NR2D: (IC50 GluR1)/(IC50 NR2D),NR1/NR2D,>16
same,IC50,NR1/NR2C,28 µM
"O=C(O)c1ccc(-n2c(/C=C/c3cccc([N+](=O)[O-])c3)nc3cccc(Cl)c3c2=O)cc1 [Compound 36, (E)-4-(5-chloro-2-(3-nitrostyryl)-4-oxoquinazolin-3(4H)-yl)benzoic acid]",GluR1/NR2D: (IC50 GluR1)/(IC50 NR2D),NR1/NR2D,>20
same,NR2A/NR2D: (IC50 NR2A)/(IC50 NR2D),NR1/NR2D,>20
"O=C(O)c1ccc(-n2c(/C=C/c3ccc([N+](=O)[O-])cc3)nc3c(Cl)cc(Cl)cc3c2=O)cc1 [Compound 41, (E)-4-(6,8-dichloro-2-(4-nitrostyryl)-4-oxoquinazolin-3(4H)-yl)benzoic acid]",GluR1/NR2D: (IC50 GluR1)/(IC50 NR2D),NR1/NR2D,>50
same,NR2A/NR2D: (IC50 NR2A)/(IC50 NR2D),NR1/NR2D,>50
"O=C(O)c1ccc(-n2c(/C=C/c3cccc([N+](=O)[O-])c3)nc3ccc(F)cc3c2=O)cc1 [Compound 42, (E)-4-(6-fluoro-2-(3-nitrostyryl)-4-oxoquinazolin-3(4H)-yl)benzoic acid]",IC50,NR1/NR2C,14 µM
"COc1ccc2nc(/C=C/c3cccc([N+](=O)[O-])c3)n(-c3ccc(C(=O)O)cc3)c(=O)c2c1 [Compound 46, (E)-4-(6-methoxy-2-(3-nitrostyryl)-4-oxoquinazolin-3(4H)-yl)benzoic acid]",selectivity for NR2C/D (NR2D) over NR2A/B,NR1/NR2D,> 50 fold
same,effect on GluR6 responses,GluR6,No significant effect
"O=C(O)c1ccc(-n2c(/C=C/c3cccc([N+](=O)[O-])c3)nc3ccc(-c4ccccc4)cc3c2=O)cc1 [Compound 49, (E)-4-(2-(3-nitrostyryl)-4-oxo-6-phenylquinazolin-3(4H)-yl)benzoic acid]","response at saturating concentration, NR2B (fitted minimum)",NR1/NR2B,51 % of control
same,"response at saturating concentration, NR2D (fitted minimum)",NR1/NR2D,14 % of control
same,"response at saturating concentration, NR2C (fitted minimum)",NR1/NR2C,22 % of control
same,"response at saturating concentration, NR2A (fitted minimum)",NR1/NR2A,68 % of control
"O=C(O)c1ccc(-n2c(/C=C/c3cccc([N+](=O)[O-])c3)nc3cc4ccccc4cc3c2=O)cc1 [Compound 50, (E)-4-(2-(3-nitrostyryl)-4-oxobenzo[g]quinazolin-3(4H)-yl)benzoic acid]","response at saturating concentration, NR2B (fitted minimum)",NR1/NR2B,50 % of control
same,"response at saturating concentration, NR2D (fitted minimum)",NR1/NR2D,20 % of control
same,"response at saturating concentration, NR2C (fitted minimum)",NR1/NR2C,26 % of control
same,"response at saturating concentration, NR2A (fitted minimum)",NR1/NR2A,68 % of control
"O=C(O)c1ccc(-n2c(/C=C/c3cccc([N+](=O)[O-])c3)nc3cc4c(cc3c2=O)OCO4)cc1 [Compound 52, (E)-4-(6-(3-nitrostyryl)-8-oxo-[1,3]dioxolo[4,5-g]quinazolin-7(8H)-yl)benzoic acid]",GluR1/NR2D: (IC50 GluR1)/(IC50 NR2D),NR1/NR2D,>8
"COc1ccc2nc(/C=C/c3cccc(C(=O)O)c3)n(-c3ccc(C(=O)O)cc3)c(=O)c2c1 [Compound 62, (E)-3-(2-(3-(4-carboxyphenyl)-6-methoxy-4-oxo-3,4-dihydroquinazolin-2-yl)vinyl)benzoic acid]",GluR1/NR2D: (IC50 GluR1)/(IC50 NR2D),NR1/NR2D,>2
same,NR2A/NR2D: (IC50 NR2A)/(IC50 NR2D),NR1/NR2D,>2
"COc1ccc2nc(/C=C/c3ccc(OC(C)=O)c(OC(C)=O)c3)n(-c3ccc(C(=O)O)cc3)c(=O)c2c1 [Compound 64, (E)-4-(2-(3,4-diacetoxystyryl)-6-methoxy-4-oxoquinazolin-3(4H)-yl)benzoic acid]",IC50,GluR1,> 300 µM
same,IC50,NR1/NR2B,> 300 µM
same,IC50,NR1/NR2D,52 µM
same,GluR1/NR2D: (IC50 GluR1)/(IC50 NR2D),NR1/NR2D,>6
same,NR2A/NR2D: (IC50 NR2A)/(IC50 NR2D),NR1/NR2D,>6
same,IC50,NR1/NR2C,124 µM
same,IC50,NR1/NR2A,> 300 µM
N#Cc1ccc(/C=C/c2nc3ccccc3c(=O)n2-c2ccc(C(=O)O)cc2)cc1 [Compound 66],GluR1/NR2D: (IC50 GluR1)/(IC50 NR2D),NR1/NR2D,>9
C=CCOc1ccc(/C=C/c2nc3ccccc3c(=O)n2-c2ccc(C(=O)O)cc2)cc1 [Compound 69],GluR1/NR2D: (IC50 GluR1)/(IC50 NR2D),NR1/NR2D,>10
same,NR2A/NR2D: (IC50 NR2A)/(IC50 NR2D),NR1/NR2D,>10
"O=C(O)c1ccc(-n2c(/C=C/c3ccc([N+](=O)[O-])cc3)nc3ccc(I)cc3c2=O)cc1 [Compound 72, (E)-4-(6-iodo-2-(4-nitrostyryl)-4-oxoquinazolin-3(4H)-yl)benzoic acid]","response at saturating concentration, NR2D (fitted minimum)",NR1/NR2D,26 % of control
same,GluR1/NR2D: (IC50 GluR1)/(IC50 NR2D),NR1/NR2D,>220
same,"response at saturating concentration, NR2C (fitted minimum)",NR1/NR2C,31 % of control
same,solubility,[1],10 µM
same,effect on GluR6 responses,GluR6,No significant effect
"O=C(O)c1cccc(-n2c(/C=C/c3ccc([N+](=O)[O-])cc3)nc3ccc(I)cc3c2=O)c1 [Compound 73, (E)-3-(6-iodo-2-(4-nitrostyryl)-4-oxoquinazolin-3(4H)-yl)benzoic acid]",GluR1/NR2D: (IC50 GluR1)/(IC50 NR2D),NR1/NR2D,>37
same,NR2A/NR2D: (IC50 NR2A)/(IC50 NR2D),NR1/NR2D,>37
"COc1ccc2nc(/C=C/c3ccc([N+](=O)[O-])cc3)n(-c3ccc(C(=O)O)cc3)c(=O)c2c1 [Compound 75, (E)-4-(6-methoxy-2-(4-nitrostyryl)-4-oxoquinazolin-3(4H)-yl)benzoic acid]",GluR1/NR2D: (IC50 GluR1)/(IC50 NR2D),NR1/NR2D,>42
"COc1ccc2nc(/C=C/c3ccc([N+](=O)[O-])cc3)n(-c3cccc(C(=O)O)c3)c(=O)c2c1 [Compound 76, (E)-3-(6-methoxy-2-(4-nitrostyryl)-4-oxoquinazolin-3(4H)-yl)benzoic acid]",GluR1/NR2D: (IC50 GluR1)/(IC50 NR2D),NR1/NR2D,>19
"Cc1nc2ccc(I)cc2c(=O)n1-c1ccc(C(=O)O)cc1 [Compound 78, 4-(6-Iodo-2-methyl-4-oxoquinazolin-3(4H)-yl)benzoic acid]",inhibitory activity,NR1/NR2D; concentrations up to 100 μM,total loss of inhibitory activity
"Cc1ccc2nc(CCc3ccccc3)n(-c3ccc(C(=O)O)cc3)c(=O)c2c1 [Compound 81, 4-(6-Methyl-4-oxo-2-phenethylquinazolin-3(4H)-yl)benzoic acid]",potency reduction on saturating the styryl linker (81 vs 80),NR1/NR2D,10 fold
O=C(O)c1ccc(-n2c(/C=C/c3ccc4ccccc4c3)nc3ccccc3c2=O)cc1 [Compound 82],GluR1/NR2D: (IC50 GluR1)/(IC50 NR2D),NR1/NR2D,>50
O=C(O)c1ccc(-n2c(/C=C/c3ccc4c(c3)OCCO4)nc3ccccc3c2=O)cc1 [Compound 86],GluR1/NR2D: (IC50 GluR1)/(IC50 NR2D),NR1/NR2D,>18
same,NR2A/NR2D: (IC50 NR2A)/(IC50 NR2D),NR1/NR2D,>18
COc1cccc(-n2c(/C=C/c3cccnc3)nc3ccc(I)cc3c2=O)c1 [Compound 90],IC50,NR1/NR2D,200 µM
"(E)-4-(6,7-dimethoxy-2-(3-nitrostyryl)-4-oxoquinazolin-3(4H)-yl)benzoic acid [Compound 63]",GluR1/NR2D: (IC50 GluR1)/(IC50 NR2D),NR1/NR2D,7
